Test results as given in patent US5972914A, “Remedies for liver diseases” (Meiji Milk Products Co., Ltd., priority 1998, dated 1999).
Counter-ions that a name gives are not always drawn.

What was measured:
[1] = system: hydroxyproline, fibrosis of the liver; assay: Effect on hepatic cirrhosis (2): hydroxyproline in liver as index of fibrosis; assay type: in vivo, Sprague-Dawley rats
Method: (§1) Groups Sprague-Dawley male rats (7 weeks old; Nippon SLC) were purchased and kept for five days before being used in the test. Each group consisted of 10 rats, and four groups were used in the test.
(§2) An N-nitrosodiethylamine solution (5.32 ml; which corresponds to 5 g due to the specific gravity of 0.94) was measured into a measuring cylinder by use of a glass pipette, and physiological saline was added to make the total volume 100 ml. Subsequently, the solution was sonicated for 2 minutes to prepare a uniform N-nitrosodiethylamine solution (50 mg/ml). The solution was prepared just before use. N-nitrosodiethylamine was intraperitoneally administered to each rat at a dose of 100 mg/2 ml/kg once in the morning on days 0, 7, 14, 21, and 28 (day 0: the first day of administration of N-nitrosodiethylamine).
An ethanolamine hydrochloric acid salt was measured and dissolved in a certain amount of distilled water for injection use. […]
The frozen liver tissue (1 g) was weighed and homogenized in a Teflon homogenizer together with pure water (3 ml). […] As an index of fibrosis, the amount of hydroxyproline was used, and the hydroxyproline content per g of liver tissue was calculated for comparison.
(3) The amount of hydroxyproline, serving as an index of fibrosis of the liver, was determined by an amino acid analysis.

[2] = system: hepatic cirrhosis induced by N-nitrosodiethylamine, nodules on liver surface; assay: Effect on hepatic cirrhosis (2): nodule formation on the liver surface; assay type: in vivo, Sprague-Dawley rats
Method: as §1, §2
An ethanolamine hydrochloric acid salt was measured and dissolved in a certain amount of distilled water for injection use. The solution was suitably diluted and administered to each rat by oral route by use of an oral probe for rats.
The liver was visually observed, and then a portion thereof was fixed with 10% neutral formalin buffer. Portions of fixed samples were frozen and stored at -80° C. in a tightly-sealed container.
The formation of nodules was evaluated by five rankings.

[3] = system: hepatic cirrhosis induced by N-nitrosodiethylamine, clear cell foci; assay: Effect on hepatic cirrhosis (2): formation of clear cell foci; conditions: N-nitrosodiethylamine 100 mg/kg i.p., days 0, 7, 14, 21, 28
[4] = system: hepatocytes, tubular epithelial cells, dermal keratinocytes and melanocytes, type II epithelial cells of pulmonary alveolus, epithelial cells of gastric mucosa; conditions: cited from earlier work
[5] = system: cancer cells; conditions: cited from earlier work
[6] = system: mice; assay: Acute toxicity test; assay type: in vivo, mice (ICR); conditions: i.p.
Method: The pH was adjusted to 7.0 by use of 5 N NaOH. Solutions having lower concentrations were prepared by dilution with physiological saline. Each solution (10 μl) was intraperitoneally injected to mice (ICR, female, 6-weeks old, 29 g), and the survival ratio was obtained.

[7] = system: serum transaminase GPT; assay: Serum GPT in mice with liver disorder induced by carbon tetrachloride; assay type: in vivo, ddY mice
Method: (§3) Carbon tetrachloride (5 ml, Wako Pure Chemicals) was put in a glass vial, and Panasate 800 (45 ml, Nippon Yushi Chemicals Co, Ltd.) was added to prepare a 10% (v/v) solution.
(§4) Subsequently, the total amount was made to 50 ml. An aliquot of 2 ml was diluted in 38 ml of physiological saline.
(§5) One group consisted of 10 mice. For 24 hours prior to the administration of tetrachloride, each mouse was fasted by being fed water only. 10% carbon tetrachloride/Panasate solution was intraperitoneally administered to each mice at a dose of 1 ml/kg.
(§6) Blood was collected from the abdominal aorta by use of 1-ml disposable syringes (Terumo). The blood, dispensed into 1.5 ml Eppendorf tubes, was subjected to centrifugal separation at 5,000 rpm for 10 minutes to thereby obtain serum. The activity of transaminase (GOT, GPT) in the serum thus obtained was measured. The measurement was performed by use of a Cobas Mira System (Baxter).

[8] = system: liver necrosis; assay: Histopathological profile of liver in mice with carbon tetrachloride liver disorder; assay type: in vivo, ddY mice; conditions: ethanolamine administration
Method: as §3, §4, §5

[9] = system: serum transaminase GOT; assay: Serum GOT in mice with liver disorder induced by carbon tetrachloride; assay type: in vivo, ddY mice
Method: as §3, §4, §5, §6

[10] = system: rat hepatocyte; assay: 3H-TdR uptake by rat hepatocytes in primary culture (hepatocyte growth promoting activity); conditions: in the presence of either the high molecular weight factor extract or EGF
Method: In separation and identification of the low molecular weight factor showing hepatocyte proliferation promoting activity derived from epithelial mucosa of the bovine small intestine, the rat hepatocyte system in primary culture was used. To this culture system, a fraction of a crude extract of bovine small intestine epithelial mucosa in the course of purification was added in the presence of high molecular weight factor extract (1%) and insulin (10 μg/ml) or in the presence of EGF (20 ng/ml) and insulin (10 μg/ml), to thereby establish an assay system for measuring the uptake of ^3 H-TdR into DNA of rat hepatocyte nuclei.
Fractions each amounting 15 ml was added to the above-mentioned assay system and the uptake of ^3 H-TdR was measured.

[11] = N-nitrosodiethylamine 100 mg/kg i.p., days 0, 7, 14, 21, 28

CCN(CC)N=O [N-nitrosodiethylamine, reference compound]
hydroxyproline level [1, 11]: significantly elevated
nodules in the surface of the liver [2, 11]: presented clear nodules in the surface of the liver
formation of clear cell foci [3]: considerable formation of clear cell foci

HGF: hepatocyte growth factor (HGF)
mitogenic activity [4]: potent mitogen
motogen function ([4]; motion of cells): function as a motogen to stimulate motion of cells
proliferation of cancer cells [5]: action to suppress proliferation of cancer cells

NCCO [EA-HCl, monoethanolamine-HCl]
Survival, 1 day after admin. ([6]; 0.5 g/kg (calculated as EA)): 4/4
Survival, 6 days after admin. ([6]; 0.5 g/kg (calculated as EA)): 4/4
Survival, administration (day) ([6]; 0.5 g/kg (calculated as EA)): 4/4
Survival, 1 day after admin. ([6]; 1.25 g/kg (calculated as EA)): 3/3
Survival, 6 days after admin. ([6]; 1.25 g/kg (calculated as EA)): 3/3
Survival, administration (day) ([6]; 1.25 g/kg (calculated as EA)): 3/3
Survival, administration (day) ([6]; 2.5 g/kg (calculated as EA)): 0/4
time to death ([6]; 5.0 and 2.5 g/kg): ≤ 30 min
Survival, administration (day) ([6]; 5.0 g/kg (calculated as EA)): 0/4
survival at six days ([6]; doses equal to or less than 1.25 g/kg): alive when six days had passed

NCCO [ethanolamine, monoethanolamine]
GPT level ([7]; intraperitoneal, 2.8 mg/kg): significantly decreased
GPT level ([7]; peroral, 16 mg/kg): significantly decreased
amount of hydroxyproline, dose dependence ([1]; oral, 15 and 50 mg/kg): the higher the dose of ethanolamine, the lower the amount of hydroxyproline
area of necrosis in histopathological profile of the liver [8]: a tendency that the area of necrosis was reduced
GOT level ([9]; intraperitoneal, 2.8 mg/kg): significantly decreased
GOT level ([9]; peroral, 16 mg/kg): significantly decreased
formation of nodules, difference vs N-nitrosodiethylamine group ([2]; 15 mg/kg and 50 mg/kg, Dunnett's test): statistically significant
prevention of hepatic cirrhosis induced by N-nitrosodiethylamine ([2]; oral administration): can be prevented by oral administration of ethanolamine
formation of nodules, dose dependence ([2]; oral, 15 and 50 mg/kg, visual observation): the higher the dose of ethanolamine, the less significant the formation of nodules
3H-TdR uptake, growth-stimulating effect [10]: synergistic growth-stimulating effects
